According to patent US20100234377A1 (priority 2007, published 2010):
Like-named read-outs stand apart in the source and are kept apart here.

What was measured:
K+ATP channel = K+ATP channel (Rattus norvegicus, UniProt Q09429); assay: KATP channel receptor binding assay ([3H]glibenclamide); settings: [3H]glibenclamide 0.1 nM, rat cerebral cortex; for inhibition at 10 µM: Table 1, 10 μM compound concentration, read-out: K^+ATP Channel (% Inhibition of Control Specific Binding); for K+ATP Channel (% Inhibition of Control Specific Binding): Table 3
Description: KATP Channel Mediated Binding Assay
The compounds of Comparative Examples I to XII and Compounds 59, 30, 22, 76 and 69 were tested for their effects in an in vitro receptor binding KATP channel assay.
(§1) The specific ligand binding to the receptor is defined as the difference between the total binding and the non-specific binding determined in the presence of an excess of unlabelled ligand. The results are expressed as a percent inhibition of control specific binding obtained in the presence of the test compounds.
(§2) In each experiment, the respective reference compound was tested concurrently with the test compounds in order to assess the assay suitability. It was tested at several concentrations (for IC50 value determination), and the data were compared with historical values.

[1] = molecular target: T1, human Prostaglandin D Synthase (GST2) (Homo sapiens, UniProt O60760); assay: Homogeneous biochemical assay of human Prostaglandin D Synthase (GST2) based on its glutathion-S-transferase activity (GSH conjugation to monochlorobimane, fluorescence)
T1 construct: the open reading frame of human Prostaglandin D Synthase was amplified from cDNA; made in house; host or cells: E. coli TOP10F'
In short: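 N-His-tagged human PGD synthase from E. coli, assayed via its GST activity: GSH conjugation to monochlorobimane in 50 mM MES/KOH pH 6.1, 0.7 mM GSH, 2 mM MgCl2. Compounds at final picomolar to triple-digit micromolar concentrations.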

PPARγ (h) = molecular target: T2, PPARγ (h) (Homo sapiens, UniProt P37231); assay: PPARγ receptor binding assay ([3H]rosiglitazone); settings: Table 3; [3H]rosiglitazone 10 nM, human recombinant
T2 construct: host or cells: E. coli
T2 sequence (P37231 1-505): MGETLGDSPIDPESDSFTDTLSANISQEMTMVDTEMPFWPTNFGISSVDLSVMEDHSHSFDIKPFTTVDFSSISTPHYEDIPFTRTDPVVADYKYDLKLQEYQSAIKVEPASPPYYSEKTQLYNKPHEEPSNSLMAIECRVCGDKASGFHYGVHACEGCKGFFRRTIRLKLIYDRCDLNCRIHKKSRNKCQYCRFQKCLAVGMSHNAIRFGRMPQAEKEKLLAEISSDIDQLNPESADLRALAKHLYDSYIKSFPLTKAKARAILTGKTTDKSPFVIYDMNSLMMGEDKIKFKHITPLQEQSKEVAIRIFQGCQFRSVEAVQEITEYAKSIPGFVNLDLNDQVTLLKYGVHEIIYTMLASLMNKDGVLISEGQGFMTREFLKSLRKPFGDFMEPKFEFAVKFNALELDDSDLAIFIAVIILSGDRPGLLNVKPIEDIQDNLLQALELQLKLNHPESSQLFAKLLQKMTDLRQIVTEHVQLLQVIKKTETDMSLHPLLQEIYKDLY
Description: Selected GST2 Inhibitors Screened Against PPARγ and KATP Channel Modulator Assays
Selected GST2 inhibitors of General Formula (I) were screened in a PPARγ assay to determine their modulator effects.
as §1, §2

[2] = Mouse microsomal metabolism assay; format: in vitro ADME; settings: liver microsomes; mouse hepatic microsomes, 37° C., phosphate buffer pH 7.4, NADPH regenerating system; read-out: Mouse t½
Description: Selected GST2 Inhibitors from Formula I Assessed in Mouse Microsomal Metabolism Assay
Selected GST2 inhibitors of General Formula (I) were screened in a mouse hepatic microsome assay to determine microsomal metabolism.
Test Articles were prepared in 50% acetonitrile.
Mouse hepatic microsomes supplied by BD GenTest Inc or an equivalent reputable supplier.
Test Articles are added to incubation plates containing phosphate buffer pH 7.4 and microsomes at a suitable protein concentration. Incubation plates are placed on a shaking water bath at 37° C. for 5 minutes pre-incubation. An aliquot of the reaction mixture is taken and added to acetonitrile (3:1). This is designated time […]. NADPH regenerating system in phosphate buffer pH 7.4 is added to initiate reactions. Aliquots from the incubation wells are taken at a number of time points and added to acetonitrile. Control incubations contained no microsomes or compounds with known microsomal stabilities. Samples were subject to centrifugation to remove denatured protein and the supernatants were analysed by LCMS.
Half lives were calculated from the log vs time transformed data according to the following equation: […]
Where λ is the slope of the linear regression line under first order (Test Article concentration <Km) conditions.

[3] = Table 1, read-out: GST2 IC50 Range
[4] = Table 3, read-out: GST2 IC50 range
[5] = given beside the compound name in Examples 1 to 167, read-out: Potency Range (GST2 IC50)

Sequence of K+ATP channel (Q09429 whole entry): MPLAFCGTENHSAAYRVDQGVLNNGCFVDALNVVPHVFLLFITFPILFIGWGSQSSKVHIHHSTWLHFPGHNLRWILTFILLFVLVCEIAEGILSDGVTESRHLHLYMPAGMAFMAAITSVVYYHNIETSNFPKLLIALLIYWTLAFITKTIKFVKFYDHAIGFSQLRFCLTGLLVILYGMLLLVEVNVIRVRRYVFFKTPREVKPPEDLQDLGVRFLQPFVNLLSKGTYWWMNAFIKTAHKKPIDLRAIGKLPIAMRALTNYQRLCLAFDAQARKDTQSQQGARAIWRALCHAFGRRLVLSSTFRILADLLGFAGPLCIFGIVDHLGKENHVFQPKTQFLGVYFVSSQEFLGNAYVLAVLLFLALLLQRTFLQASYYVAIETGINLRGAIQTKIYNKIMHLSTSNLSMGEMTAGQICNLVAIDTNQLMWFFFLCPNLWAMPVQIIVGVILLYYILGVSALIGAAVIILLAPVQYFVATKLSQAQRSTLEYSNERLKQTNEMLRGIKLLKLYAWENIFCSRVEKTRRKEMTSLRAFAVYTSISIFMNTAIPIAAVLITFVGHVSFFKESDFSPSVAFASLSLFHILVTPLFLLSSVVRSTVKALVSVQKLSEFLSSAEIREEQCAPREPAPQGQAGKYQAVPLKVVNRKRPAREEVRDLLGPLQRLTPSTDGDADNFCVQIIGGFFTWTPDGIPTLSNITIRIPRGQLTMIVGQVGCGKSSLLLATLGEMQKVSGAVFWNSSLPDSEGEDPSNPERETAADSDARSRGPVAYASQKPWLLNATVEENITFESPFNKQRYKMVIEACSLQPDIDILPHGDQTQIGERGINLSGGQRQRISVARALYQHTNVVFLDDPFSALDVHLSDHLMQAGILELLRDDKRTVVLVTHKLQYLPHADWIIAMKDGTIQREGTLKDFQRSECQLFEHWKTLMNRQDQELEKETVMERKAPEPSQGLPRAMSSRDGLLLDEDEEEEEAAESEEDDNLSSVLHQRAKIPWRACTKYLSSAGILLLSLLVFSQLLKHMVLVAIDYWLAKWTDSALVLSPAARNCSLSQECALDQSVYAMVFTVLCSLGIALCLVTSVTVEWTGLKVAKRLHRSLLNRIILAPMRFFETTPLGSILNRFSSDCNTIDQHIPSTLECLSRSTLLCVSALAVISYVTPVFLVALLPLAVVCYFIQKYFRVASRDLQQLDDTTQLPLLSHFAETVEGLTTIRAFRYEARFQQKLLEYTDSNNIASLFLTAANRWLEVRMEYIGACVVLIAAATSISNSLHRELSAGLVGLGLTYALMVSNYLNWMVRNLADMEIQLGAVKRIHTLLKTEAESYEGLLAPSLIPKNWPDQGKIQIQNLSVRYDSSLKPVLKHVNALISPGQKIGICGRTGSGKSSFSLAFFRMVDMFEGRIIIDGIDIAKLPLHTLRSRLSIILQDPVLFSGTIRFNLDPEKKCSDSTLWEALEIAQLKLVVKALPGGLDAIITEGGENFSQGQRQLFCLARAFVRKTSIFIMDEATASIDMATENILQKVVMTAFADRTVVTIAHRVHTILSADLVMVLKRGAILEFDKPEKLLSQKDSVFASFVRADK
Sequence of K+ATP channel (P70673 whole entry partner): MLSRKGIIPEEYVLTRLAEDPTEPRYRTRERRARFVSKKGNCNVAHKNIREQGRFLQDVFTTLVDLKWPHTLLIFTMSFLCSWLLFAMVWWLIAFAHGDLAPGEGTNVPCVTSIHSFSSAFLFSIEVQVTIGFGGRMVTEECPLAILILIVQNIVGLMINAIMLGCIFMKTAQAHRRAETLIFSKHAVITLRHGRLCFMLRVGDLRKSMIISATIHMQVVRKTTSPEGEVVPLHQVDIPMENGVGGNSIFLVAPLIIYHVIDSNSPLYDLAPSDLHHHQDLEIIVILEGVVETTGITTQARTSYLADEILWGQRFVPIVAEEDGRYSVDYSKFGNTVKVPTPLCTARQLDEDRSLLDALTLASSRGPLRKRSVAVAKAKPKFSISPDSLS
T1 sequence (O60760 whole entry): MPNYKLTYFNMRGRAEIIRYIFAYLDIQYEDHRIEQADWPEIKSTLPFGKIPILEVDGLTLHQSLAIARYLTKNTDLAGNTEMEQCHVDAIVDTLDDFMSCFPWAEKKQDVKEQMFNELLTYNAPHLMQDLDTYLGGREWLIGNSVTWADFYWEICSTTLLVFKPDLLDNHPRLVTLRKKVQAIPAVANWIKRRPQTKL

Row | Compound | inhibition at 10 µM (K+ATP channel) | K+ATP Channel (% Inhibition of Control Specific Binding) (K+ATP channel) | IC50 [1, 3] | IC50 [1, 4] | IC50 [1, 5] | PPARγ (% Inhibition of Control Specific Binding) (PPARγ (h)) | half-life [2]
1 | O=C(Nc1ccc(N2CCN(C(=O)OC3CCOC3)CC2)c(F)c1)N1CCN(C(=O)c2cccc(F)c2)CC1 (racemic) [Compound 59, 4-(2-Fluoro-4-{[4-(3-fluoro-benzoyl)-piperazine-1-carbonyl]-amino}-phenyl)-piperazine-1-carboxylic acid tetrahydro-furan-3-yl ester] | 15% | 12% | 11 to 100 nM | 11 to 100 nM | 11 to 100 nM | 15% | 
2 | O=C(Nc1cc(C(F)(F)F)cc(C(F)(F)F)c1)N1CCN(C(=O)c2ccco2)CC1 [Compound I, 4-(Furan-2-carbonyl)-piperazine-1-carboxylic acid (3,5-bis-trifluoromethyl-phenyl)-amide, reference compound] | -1% |  | 101 to 1000 nM |  |  |  | 
3 | O=C(Nc1cc(Cl)cc(Cl)c1)N1CCN(C(=O)c2ccco2)CC1 [Compound II, 4-(Furan-2-carbonyl)-piperazine-1-carboxylic acid (3,5-dichloro-phenyl)-amide, reference compound] | -17% |  | 101 to 1000 nM |  |  |  | 
4 | O=C(Nc1cc(C(F)(F)F)ccc1Cl)N1CCN(C(=O)c2ccco2)CC1 [Compound III, 4-(Furan-2-carbonyl)-piperazine-1-carboxylic acid (2-chloro-5-trifluoromethyl-phenyl)-amide, reference compound] | -8% |  | 101 to 1000 nM |  |  |  | 
5 | O=C(c1ccco1)N1CCN(C(=S)Nc2cc(Cl)cc(Cl)c2)CC1 [Compound IV, 4-(Furan-2-carbonyl)-piperazine-1-carbothioic acid (3,5-dichloro-phenyl)-amide, reference compound] | -7% |  | 101 to 1000 nM |  |  |  | 
6 | O=C(c1ccccc1)N1CCN(C(=S)Nc2cc(C(F)(F)F)cc(C(F)(F)F)c2)CC1 [Compound IX, 4-Benzoyl-piperazine-1-carbothioic acid (3,5-bis-trifluoromethyl-phenyl)-amide, reference compound] | 10% |  | 101 to 1000 nM |  |  |  | 
7 | O=C(c1ccco1)N1CCN(C(=S)Nc2cc(C(F)(F)F)ccc2Cl)CC1 [Compound V, 4-(Furan-2-carbonyl)-piperazine-1-carbothioic acid (2-chloro-5-trifluoromethyl-phenyl)-amide, reference compound] | -20% |  | 101 to 1000 nM |  |  |  | 
8 | O=C(c1ccco1)N1CCN(C(=S)Nc2cc(C(F)(F)F)cc(C(F)(F)F)c2)CC1 [Compound VI, 4-(Furan-2-carbonyl)-piperazine-1-carbothioic acid (3,5-bis-trifluoromethyl-phenyl)-amide] | 4% |  |  |  |  |  | 
9 | O=C(Nc1cc(Cl)cc(Cl)c1)N1CCN(C(=O)c2ccccc2)CC1 [Compound VII, 4-Benzoyl-piperazine-1-carboxylic acid (3,5-dichloro-phenyl)-amide, reference compound] | -10% |  | 11 to 100 nM |  |  |  | 
10 | O=C(Nc1cc(C(F)(F)F)ccc1Cl)N1CCN(C(=O)c2ccccc2)CC1 [Compound VIII, 4-Benzoyl-piperazine-1-carboxylic acid (2-chloro-5-trifluoromethyl-phenyl)-amide, reference compound] | -3% |  | 101 to 1000 nM |  |  |  | 
11 | O=C(c1ccccc1)N1CCN(C(=S)Nc2cc(Cl)cc(Cl)c2)CC1 [Compound X, 4-Benzoyl-piperazine-1-carbothioic acid (3,5-dichloro-phenyl)-amide, reference compound] | -10% |  | 101 to 1000 nM |  |  |  | 
12 | O=C(c1ccccc1)N1CCN(C(=S)Nc2cc(C(F)(F)F)ccc2Cl)CC1 [Compound XI, 4-Benzoyl-piperazine-1-carbothioic acid (2-chloro-5-trifluoromethyl-phenyl)-amide, reference compound] | -12% |  | 11 to 100 nM |  |  |  | 
13 | O=C(c1ccccc1)N1CCN(C(=S)Nc2ccc(C(F)(F)F)cc2)CC1 [Compound XII, 4-Benzoyl-piperazine-1-carbothioic acid (4-trifluoromethyl-phenyl)-amide, reference compound] | -14% |  | 11 to 100 nM |  |  |  | 

Now from value to compound:

Row | inhibition at 10 µM (K+ATP channel) | K+ATP Channel (% Inhibition of Control Specific Binding) (K+ATP channel) | IC50 [1, 3] | IC50 [1, 4] | IC50 [1, 5] | PPARγ (% Inhibition of Control Specific Binding) (PPARγ (h)) | half-life [2] | Compound
14 | 16% | 13% | 11 to 100 nM | 11 to 100 nM | 11 to 100 nM | 16% |  | Cc1nc(-c2cccc(NC(=O)N3CCN(C(=O)c4cccc(F)c4)CC3)c2)no1 [Compound 30, 4-(3-Fluoro-benzoyl)-piperazine-1-carboxylic acid [3-(5-methyl-[1,2,4]oxadiazol-3-yl)-phenyl]-amide]
15 | -22% | −13% | 11 to 100 nM | 11 to 100 nM | 11 to 100 nM | −22% |  | O=C(Nc1nc(-c2ccccc2)cs1)N1CCN(C(=O)c2cccc(F)c2)CC1 [Compound 69, 4-(3-Fluoro-benzoyl)-piperazine-1-carboxylic acid (4-phenyl-thiazol-2-yl)-amide]
16 | 20% | −2% | 11 to 100 nM | 11 to 100 nM | 101 to 1000 nM | 20% |  | Cn1cnnc1-c1cccc(NC(=O)N2CCN(C(=O)c3cccc(F)c3)CC2)c1 [Compound 76, 4-(3-Fluoro-benzoyl)-piperazine-1-carboxylic acid [3-(4-methyl-4H-[1,2,4]triazol-3-yl)-phenyl]-amide]
17 |  |  |  |  | 101 to 1000 nM |  | > 60 min | O=C(Nc1ccc(NC(=O)N2CCN(C(=O)c3cccc(F)c3)CC2)cc1)c1ccncc1 [Compound 123, 4-(3-Fluoro-benzoyl)-piperazine-1-carboxylic acid {4-[(pyridine-4-carbonyl)-amino]-phenyl}-amide]
18 |  |  |  |  | 101 to 1000 nM |  | > 60 min | CS(=O)(=O)Nc1ccc(NC(=O)N2CCN(C(=O)c3cccc(F)c3)CC2)cc1 [Compound 126, 4-(3-Fluoro-benzoyl)-piperazine-1-carboxylic acid (4-methanesulfonylamino-phenyl)-amide]
19 |  |  |  |  | 11 to 100 nM |  | > 60 min | O=C(Nc1ccc(N2CCOCC2)nc1)N1CCN(C(=O)c2cccc(F)c2)CC1 [Compound 154, 4-(3-Fluoro-benzoyl)-piperazine-1-carboxylic acid (6-morpholin-4-yl-pyridin-3-yl)-amide]
20 |  |  |  |  | 101 to 1000 nM |  | 59.4 min | O=C(Nc1ccc(F)cc1)N1CCN(C(=O)c2cccc(F)c2)CC1 [Compound 155, 4-(3-Fluoro-benzoyl)-piperazine-1-carboxylic acid (4-fluoro-phenyl)-amide]
21 |  |  |  |  | 101 to 1000 nM |  | 31.4 min | Cc1ccccc1C(=O)N1CCN(C(=O)Nc2ccc(F)cc2)CC1 [Compound 156, 4-(2-Methyl-benzoyl)-piperazine-1-carboxylic acid (4-fluoro-phenyl)-amide]
